What was measured:
[1] = target: KRAS G12D:SOS1 (Homo sapiens, UniProt P01116, G12D); assay: KRAS G12D:SOS1 GDP TR-FRET assay; type: binding; conditions: GST-KRAS G12D 37.5 nM, GDP 10 μM, His-SOS1 18 nM
Experimental: (§1) KRAS:SOS1 GDP TR-FRET Assay
(§2) This assay was used to identify compounds which competitively interact with the binding of KRAS protein to SOS1 in the presence of GDP. […] All protein and reaction solutions were prepared in assay buffer containing DPBS pH7.5, 0.1% BSA, and 0.05% Tween 20. Purified GST-tagged WT KRAS or KRAS G12D protein (37.5 nM final assay concentration) and GDP (Sigma, 10 μM final assay concentration) mixture, a serially diluted compound (top final concentration is 50 μM or 10 uM, 3-fold serially diluted, 10 points) and His-tagged SOS1 protein (18 nM final assay concentration) were added into the assay plates (384 well microplate, black, Corning) sequentially. Plates are incubated at 24° C. for 1 hr. Following the incubation, Mab Anti-GST-Tb cryptate (Cisbio) and […] (Cisbio) were added and further incubated at 24° C. for another 1 hr. The TR-FRET signals (ex337 nm, em665 nm/620 nm) were read on BMG PHERAstar FSX instrument. The inhibition percentage of KRAS protein binding with SOS1 in presence of increasing concentrations of compounds was calculated based on the ratio of fluorescence at 665 nm to that at 620 nm. The IC50 value of each compound was calculated from fitting the data to the four-parameter logistic model by Dotmatics.

[2] = target: WT KRAS:SOS1 (Homo sapiens, UniProt P01116); assay: KRAS WT:SOS1 GDP TR-FRET assay; type: binding; conditions: GST-WT KRAS 37.5 nM, GDP 10 μM, His-SOS1 18 nM
Sequence of WT KRAS:SOS1 (P01116 1-188 isoform P01116-2): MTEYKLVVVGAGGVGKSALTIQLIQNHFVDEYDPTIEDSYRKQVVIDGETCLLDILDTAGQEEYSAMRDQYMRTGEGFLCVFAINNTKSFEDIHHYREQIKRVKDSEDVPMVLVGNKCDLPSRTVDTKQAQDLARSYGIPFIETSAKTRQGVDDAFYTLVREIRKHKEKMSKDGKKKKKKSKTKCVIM
Experimental: as §1, §2

[3] = test system: pERK1/2 (THR202/TYR204) in AsPC-1 cells; assay: pERK Assay (HTRF) in AsPC-1 cells; type: cell-based; conditions: Homo sapiens, ASPC1, 2 h compound treatment
Experimental: AsPC-1 cell line was used in this study. […] 30000 cells per well were seeded into a 96-well plate and incubated overnight. […] After 2 h compound treatment, cells were lysed, and the pERK1/2 (THR202/TYR204) level in the cell lysates was detected by HTRF kit (Cisbio). In brief, a total of 16 μL of cell lysate from each well of a 96-well plate was transferred to a 384-well white assay plate. Lysate from each well was incubated with 2 μL of Eu3+-cryptate (donor) labeled anti-phospho-ERK1/2 and 2 μL of D2 (acceptor) labeled anti-phospho-ERK1/2 antibodies (Cisbio) overnight in dark at room temperature. When donor and acceptor are in close proximity, excitation of the donor with laser triggers a Fluorescence Resonance Energy Transfer (FRET) towards the acceptor, which in turn fluoresces at 655 nm wavelength. FRET signals were measured using a PHERAstar FSX reader (BMG Labtech).

Sequence of KRAS G12D:SOS1 (P01116 1-188 isoform P01116-2 G12D): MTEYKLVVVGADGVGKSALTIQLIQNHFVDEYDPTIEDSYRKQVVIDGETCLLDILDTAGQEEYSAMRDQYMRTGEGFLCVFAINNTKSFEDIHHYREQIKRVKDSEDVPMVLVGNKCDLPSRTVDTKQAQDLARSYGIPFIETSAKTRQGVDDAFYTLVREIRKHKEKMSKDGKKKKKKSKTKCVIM

SMILES | IC50 [1] [nM] | IC50 [2] [nM] | IC50 [3] [nM]
CN(C)CCCOc1nc(N2CCNCC2)c2cc(Cl)c(-c3cc(O)cc4ccccc34)c(F)c2n1 [Example E1, 4-(6-chloro-2-(3-(dimethylamino)propoxy)-8-fluoro-4-(piperazin-1-)quinazolin-7-yl)naphthalen-2-ol] | 1870 | 26900 | > 10000
CN(C)CCCOc1nc(N2CC3CC2CN3)c2cc(Cl)c(-c3ccc(F)c4sc(N)nc34)c(F)c2n1 (stereo not drawn) [Example E3, 4-(4-(2,5-diazabicyclo[2.2.1]heptan-2-yl)-6-chloro-2-(3-(dimethylamino)propoxy)-8-fluoroquinazolin-7-yl)-7-fluorobenzo[d]thiazol-2-amine] | 68 | 3290 | > 10000
CN(C)CCCOc1nc(N2CC3CCC2CN3)c2cc(Cl)c(-c3ccc(F)c4sc(N)nc34)c(F)c2n1 (stereo not drawn) [Example E4, 4-(4-(2,5-diazabicyclo[2.2.2]octan-2-yl)-6-chloro-2-(3-(dimethylamino)propoxy)-8-fluoroquinazolin-7-yl)-7-fluorobenzo[d]thiazol-2-amine] | 39 | 1100 | > 10000
CC(CN1CCCCC1)Oc1nc(N2CC3CCC(C2)N3)c2cc(Cl)c(-c3ccc(F)c4sc(N)nc34)c(F)c2n1 (stereo not drawn) [Example E5, 4-(4-(3,8-diazabicyclo [3.2.1]octan-3-yl)-6-chloro-8-fluoro-2-((1-(piperidin-1-yl)propan-2-yl)_oxy)quinazolin-7-yl)-7-fluorobenzo[d]thiazol-2-amine] | 20 | 402 | 2870
CC(CN1CCCCC1)Oc1nc(N2CC3CC(C2)N3)c2cc(Cl)c(-c3ccc(F)c4sc(N)nc34)c(F)c2n1 (stereo not drawn) [Example E6, 4-(4-(3,6-diazabicyclo[3.1.1]heptan-3-yl)-6-chloro-8-fluoro-2-((1-(piperidin-1-yl)propan-2-yl)oxy)quinazolin-7-yl)-7-fluorobenzo[d]thiazol-2-amine] | 18 | 1060 | 7080
Nc1nc2c(-c3c(Cl)cc4c(N5CC6CCC(C5)N6)nc(OCC56CCCN5CCC6)nc4c3F)ccc(F)c2s1 [Example E7, 4-(4-(3,8-diazabicyclo[3.2.1]octan-3-yl)-6-chloro-8-fluoro-2-((tetrahydro-1H-pyrrolizin-7a(5H)-yl)methoxy)quinazolin-7-yl)-7-fluorobenzo[d]thiazol-2-amine] | 4.7 | 11 | 2640
CC(CN1CCCCC1)Oc1nc(N2C3CCC2CNC3)c2cc(Cl)c(-c3ccc(F)c4sc(N)nc34)c(F)c2n1 (stereo not drawn) [Example E8, 4-(4-(3,8-diazabicyclo[3.2.1]octan-8-yl)-6-chloro-8-fluoro-2-((1-(piperidin-1-yl)propan-2-yl)oxy)quinazolin-7-yl)-7-fluorobenzo[d]thiazol-2-amine] | 6.7 | 50 | 1150
CC(CN1CCCCC1)Oc1nc(N2C3CCC2C(N)C3)c2cc(Cl)c(-c3ccc(F)c4sc(N)nc34)c(F)c2n1 (stereo not drawn) [Example E9, 4-(4-(2-amino-7-azabicyclo[2.2.1]heptan-7-yl)-6-chloro-8-fluoro-2-((1-(piperidin-1-yl)propan-2-yl)oxy)quinazolin-7-yl)-7-fluorobenzo[d]thiazol-2-amine] | 26 | 381 | 7690
CC(CN1C2CCC1CNC2)Oc1nc(N2CC3CCC(C2)N3)c2cc(Cl)c(-c3ccc(F)c4sc(N)nc34)c(F)c2n1 (stereo not drawn) [Example E10, 4-(2-((1-(3,8-diazabicyclo[3.2.1]octan-8-yl)propan-2-yl)oxy)-4-(3,8-diazabicyclo[3.2.1]octan-3-yl)-6-chloro-8-fluoroquinazolin-7-yl)-7-fluorobenzo[d]thiazol-2-amine] | 5.7 | 387 | > 10000
